Values belong to the compound of their own block, whether it stands above or below them.
Columns and labels:
endothelial barrier = assay: Endothelial barrier permeability under flow shear (ECs and supporting MSCs on mesh inserts); assay type: cell-based, human
[1] = tested on: all tissues in the InterOrgan platform (heart, liver, bone, skin); assay: Doxorubicin-induced toxicity: cell viability, glucose consumption, mitochondrial activity of engineered tissues; assay type: cell-based, human; conditions: 30 μM Dox, 72 hours
Description: Metabolic Assays: Glucose, lactate, glutamate and glutamine were measured in parallel using the bioluminescent Glucose-Glo™ (Promega, cat. no. J6021), Lactate-Glo™ (Promega, cat. No. J5021), Glutamine/Glutamate-Glo™ (Promega, cat. no. J8021) and Glutamate-Glo™ (Promega, cat. no. J7021) assays according to the manufacturer's protocols.

engineered skin tissues = assay: Doxorubicin-induced toxicity: skin functional assays; assay type: cell-based, human; conditions: 30 μM Dox, both Isolated and InterOrgan cultures
Description: Skin functional assays: For drug-induced toxicity studies, electrical current was run through the tissues by placing electrodes on either side of the skin tissue and the change in resistance was subsequently measured and read as a function of the barrier. All tissues were analyzed using the same electrode holder setup to standardize the positions of electrodes with respect to the tissue. To analyze the transport of molecules through the skin barrier, Fluorescein (FITC, ThermoFisher, D3306) powder was added to the epidermis of skin tissues. After 3 hrs, 100 μl of supernatant from the dermal region below the skin tissue was sampled and assayed on a plate reader (BioTex SynergyHTX).

miRNAs in heart tissues = assay type: cell-based, human
Text: We used the GeneChip™ miRNA 4.0 Array (ThermoFisher) to measure differential expression of miRNAs in heart tissues following Dox treatment.
Differential expressions of all other miRNAs were highly significant in the InterOrgan platform, based on Normalized Enrichment Scores (NES), showing activity consistent with published clinical results for 20 out of the 22 miRNAs (FIGS. 14A-14F).
miRNA was isolated using miRNeasy Mini Kit from (Qiagen, 217004). Samples were shipped on dry ice to Advanced BioMedical Laboratories and assayed using the miRNA 4.0 Genechip Array (ThermoFisher). Results were analyzed using the TAC 4.0 software (ThermoFisher). Additional Ingenuity Pathway Analysis was performed using the methodology described above.
To assess the activity of miRNAs, gene set enrichment analysis (GSEA) was performed of their targets, as determined by MultiMiR (release 3.11) and RBio-mirGS (update 0.2.12) biocoductor packages (in R) for genes that were differentially expressed after Dox treatment. Since miRNAs generally repress their targets, the sign of the normalized enrichment score was reversed to correctly report their change in activity. For instance, a positive target enrichment for miR-1273a's targets was reported as a negative NES (NES=−21.31) because it is consistent with its downregulation. […]

[2] = tested on: human engineered cardiac tissue; assay: Validation of engineered cardiac tissue by drugs with known cardiac effects (beat frequency); assay type: cell-based; conditions: doxorubicin 1 μM over 72 hours
Description: The cardiac tissue model was generated from iPS-derived cardiomyocytes and fibroblasts encapsulated in fibrin hydrogel, as in our previous studies. The tissue was formed between two elastic pillars causing cell elongation and alignment, and subjected to electrical stimulation to synchronously contract and work against the pillars.
Specifically, linsitinib was dissolved at a 10 mM concentration in DMSO (Corning) and mixed in with the respective cell medium at a […] concentration unless otherwise noted. Vehicle treatments involved just the addition of DMSO at identical volumes as a control. Tissues were randomly assigned to experimental groups. Medium was changed every day.
To measure the cardiac contractility online, we took contractility videos of the tissues that were analyzed using the native MATLAB code we previously developed. Tissue contractility was measured by tracking the change in tissue area as a function of time. […] Absolute differences in cell area from the baseline frame were then calculated to create a time course of cell area changes over time. The resulting time courses were analyzed using a native MATLAB (MATHWorks) automated peak finding algorithm to determine locations of maximum cell contractions in the time profiles. […] The rate of proarrhythmic events was calculated by the ratio of the number of proarrhythmic events over the total number of beats.

[3] = FITC absorption and diffusive transport in the integrated platform; assay type: physicochemical
Description: Fluorescein isothiocyanate (FITC, 10 mM in DMSO; Sigma Aldrich) was circulated for the integrated platform to determine potential hydrophobic small molecule absorption, given its physical and chemical properties. FITC was added at a concentration of 10 µM to 8 mL of 1:1 bone tumor/cardiac mixed media and introduced into the platform. The control was the FITC-containing media in a standard 24-multiwell plate (Corning). Aliquots from the reservoir, bone tumor, and cardiac tissue chambers were taken at 12, 24, 48 and 72 hours and measured for fluorescent signal using a spectrophotometer (Biotek).
Measurements of FITC concentrations were used to estimate the spread of linsitinib within the platform via diffusive circulating transport. Four independent platforms were filled with 8 mL of 1:1 mixed media each, after which 10 µM of FITC was injected into the reservoir. The platforms were connected to the peristaltic pumps run at 100 rpm to generate physiologically relevant fluid flow rate and shear stress. Aliquots were taken from the reservoir, bone and cardiac chambers at 0, 2, 4, 6, and 12 hours post injection, and assayed for fluorescence signal on a spectrophotometer (Biotek).

cardiac muscle = assay: Cardiac beat frequency after drug injection into the reservoir of the InterOrgan platform; assay type: cell-based, human; conditions: 10 μM into reservoir at t=0; assessed at 24 and 72 hours

Compound: thrombin
barrier permeability in response to thrombin (endothelial barrier): physiologic increase in barrier permeability

miR-1273a fold change (FC) (miRNAs in heart tissues): −30.6
Compound: COc1cccc2c1C(=O)c1c(O)c3c(c(O)c1C2=O)C[C@@](O)(C(=O)CO)C[C@@H]3O[C@H]1C[C@H](N)[C@H](O)[C@H](C)O1 [doxorubicin]
cell viability [1]: significantly decreased | glucose consumption [1]: significantly decreased | mitochondrial activity [1]: significantly decreased | diffusional permeability of skin (engineered skin tissues): increased | electrical resistance of skin (engineered skin tissues): decreased | beat frequency [2]: initially increased, and then decreased following prolonged exposure

Compound: Fluorescein isothiocyanate [FITC]
absorption by the platform ([3]; 10 μM circulated for 72 hours, compared to multi-well plates): without any measurable absorption | time to equilibrium across both models ([3]; 10 μM injected into reservoir): approximately 6 hours | time to uniform concentration in all areas of the platform ([3]; 10 μM injected into reservoir): ≤ 12 h

Compound: CN(CCOc1ccc(NS(C)(=O)=O)cc1)CCc1ccc(NS(C)(=O)=O)cc1 [dofetilide]
beat rate of cardiac muscle (cardiac muscle): decreased

Compound: CNC[C@H](O)c1ccc(O)c(O)c1 [epinephrine]
beat rate of cardiac muscle (cardiac muscle): increased the beat rate in a time-dependent manner

— patent US20250092345A1, “INTER ORGAN PLATFORM FOR MICROPHYSIOLOGICAL SYSTEM ON A CHIP” (THE TRUSTEES OF COLUMBIA UNIVERSITY IN THE CITY OF NEW YORK, priority 2020, published 2025)
